Our source for the inhibition values is article PMC8041284, “Tunable Methacrylamides for Covalent Ligand Directed Release Chemistry” (Journal of the American Chemical Society, 2021).

As usually defined, the inhibition is the drop in the measured response relative to a control, in per cent.

The assay addresses BTK (Homo sapiens, UniProt Q06187). Briefly: biochemical. Particulars: read-out: BTK inhibition (%), 0.75 uM BTK, […] probe 3l, 15 min preincubation.

Each structure is given as a SMILES string.

BTK, sequence (Q06187 402-655 limits assumed): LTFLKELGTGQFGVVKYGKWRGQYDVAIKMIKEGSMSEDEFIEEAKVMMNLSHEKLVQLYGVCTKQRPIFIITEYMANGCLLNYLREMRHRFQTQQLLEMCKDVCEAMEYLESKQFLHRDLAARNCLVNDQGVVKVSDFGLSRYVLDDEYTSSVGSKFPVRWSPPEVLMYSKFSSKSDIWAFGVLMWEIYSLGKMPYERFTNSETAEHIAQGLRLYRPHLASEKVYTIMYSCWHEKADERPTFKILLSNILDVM

On to `Cn1cnc2c(F)c(Nc3ccc(Br)cc3Cl)c(C(=O)NOCCO)cc21` [PCM-0094893], for which the inhibition at 10 µM was -6.9%.
As for `CCc1c(C(=O)C(N)=O)c2c(OCC(=O)O)cccc2n1Cc1ccccc1` [PCM-0094894], the inhibition at 10 µM is -16.3%.
Regarding `COC(=O)c1ccc2c(C(=Nc3ccc(N(C)C(=O)CN4CCN(C)CC4)cc3)c3ccccc3)c(O)[nH]c2c1` [PCM-0094897], the inhibition at 10 µM amounted to 22.1%.
Turning to `Cn1cc(-c2ccc3nnc(Sc4ccc5ncccc5c4)n3n2)cn1` [PCM-0094898], the inhibition at 10 µM is -3.4%.
On to `O=c1[nH]c(=O)n(C2CCCO2)cc1F` (centres unmarked) [PCM-0094899], for which the inhibition at 10 µM is -3.1%.
Turning to `Nc1ncn([C@H]2C[C@H](O)[C@@H](CO)O2)c(=O)n1` [PCM-0094900], the inhibition at 10 µM is 11%.
As for `NCCC(O)(P(=O)(O)O)P(=O)(O)O` [PCM-0094901], the inhibition at 10 µM was -6.8%.
As for `Cc1ccc([N+](=O)[O-])cc1S(=O)(=O)N(C)/N=C/c1cnc2ccc(Br)cn12` [PCM-0094904], the inhibition at 10 µM amounted to 13.6%.
`Cc1noc(-c2ccc(CSCCC(=O)O)cc2)c1NC(=O)OC(C)c1ccccc1Cl` (centres unmarked) [PCM-0094905]: the inhibition at 10 µM is -21%.
Next, `CN(C)C/C=C/C(=O)Nc1cc2c(Nc3ccc(F)c(Cl)c3)ncnc2cc1O[C@H]1CCOC1` [PCM-0094907]: 84.8%.
`CCn1c(-c2nonc2N)nc2c(C#CC(C)(C)O)ncc(OC[C@H]3CCCNC3)c21` [PCM-0094908]: the inhibition at 10 µM was -4.1%.
As to `CC(C)C[C@H](NC(=O)[C@H](Cc1ccccc1)NC(=O)c1cnccn1)B(O)O` [PCM-0094909], the inhibition at 10 µM was 8.6%.
As to `Cn1cc(-c2ccc3nnc(C(F)(F)c4ccc5ncccc5c4)n3n2)cn1` [PCM-0094910], the inhibition at 10 µM is -1.4%.
As to `CC(C)(F)C[C@H](N[C@@H](c1ccc(-c2ccc(S(C)(=O)=O)cc2)cc1)C(F)(F)F)C(=O)NC1(C#N)CC1` [PCM-0094912], the inhibition at 10 µM is -23.3%.
In the case of `COc1cc2c(Oc3ccc4[nH]c(C)cc4c3F)ncnc2cc1OCCCN1CCCC1` [PCM-0094913], the inhibition at 10 µM is 33.8%.
For `C=CC(=O)Nc1cc2c(Nc3ccc(F)c(Cl)c3)ncnc2cc1OCCCN1CCOCC1` [PCM-0094917], the inhibition at 10 µM is 93.6%.
As for `Cc1ccc(S(=O)(=O)Nc2nc3ccccc3nc2Nc2ccc3nsnc3c2)cc1` [PCM-0094918], the inhibition at 10 µM was -1.7%.
Turning to `O=C(NOCC1CC1)c1ccc(F)c(F)c1Nc1ccc(I)cc1Cl` [PCM-0094919], the inhibition at 10 µM turned out to be 5.5%.
Consider `CC(C)c1ccccc1Cc1cc(C(=O)Nc2ccc(S(=O)(=O)c3ccccc3C(C)(C)C)cc2)c(O)c(O)c1O` [PCM-0094924], for which the inhibition at 10 µM amounted to 54.5%.
Regarding `Nc1ccccc1NC(=O)c1ccc(CNc2nccc(-c3cccnc3)n2)cc1` [PCM-0094926], the inhibition at 10 µM amounted to 2.8%.
As for `COc1cc2nccc(Oc3ccc(NC(=O)Nc4cc(C)on4)c(Cl)c3)c2cc1OC` [PCM-0094927], the inhibition at 10 µM is 84.1%.
For the compound `CCc1cccc2c3c([nH]c12)C(CC)(CC(=O)O)OCC3` (centres unmarked) [PCM-0094929], the inhibition at 10 µM came to 1.4%.
In the case of `COc1nc(N)nc2c1ncn2[C@@H]1O[C@H](CO)[C@@H](O)[C@@H]1O` [PCM-0094930], the inhibition at 10 µM is -3.1%.
For the compound `COc1ccccc1S(=O)(=O)Nc1ccc2c(c1)CN(C)C(=O)N2` [PCM-0094933], the inhibition at 10 µM is 6.2%.
With `O=C(Nc1ccccc1-c1cn2c(CN3CCNCC3)csc2n1)c1cnc2ccccc2n1` [PCM-0094935], the inhibition at 10 µM came to 10.3%.
`COCCn1c2c([n+](Cc3cnccn3)c1C)C(=O)c1ccccc1C2=O` [PCM-0094937]: the inhibition at 10 µM was -17.9%.
Turning to `Nc1cccc2c1CN(C1CCC(=O)NC1=O)C2=O` (centres unmarked) [PCM-0094938], the inhibition at 10 µM turned out to be 14.5%.
With `COc1cc(Nc2ncc3c(n2)-c2ccc(Cl)cc2C(c2c(F)cccc2OC)=NC3)ccc1C(=O)O` [PCM-0094940], the inhibition at 10 µM turned out to be 83.4%.
On to `O=C(Nc1cn[nH]c1-c1nc2ccc(CN3CCOCC3)cc2[nH]1)NC1CC1` [PCM-0094942], for which the inhibition at 10 µM is 93.8%.
